PubChem BioAssay (NCI)
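Briefly, cells in 96-well plates were exposed to five compound concentrations for 48 h, and endpoints were estimated by linear interpolation. TGI: total growth inhibition.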

Legend:
Assay in all cases: DTP human tumour cell line panel, 48 h
BT-549 breast = system: BT-549 breast
HOP-62 NSCLC = system: HOP-62 NSCLC
A498 renal = system: A498 renal
HCT-15 colon = system: HCT-15 colon
MDA-MB-231 breast = system: MDA-MB-231 breast
RPMI-8226 leukemia = system: RPMI-8226 leukemia
NCI-H23 lung = system: NCI-H23 lung
PC-3 prostate = system: PC-3 prostate
HOP-92 NSCLC = system: HOP-92 NSCLC
COLO 205 colon = system: COLO 205 colon
NCI/ADR-RES ovarian = system: NCI/ADR-RES ovarian
HS 578T breast = system: HS 578T breast

SMILES	TGI (BT-549 breast)	TGI (HOP-62 NSCLC)	TGI (A498 renal)	TGI (HCT-15 colon)	TGI (MDA-MB-231 breast)	TGI (RPMI-8226 leukemia)	TGI (NCI-H23 lung)	TGI (PC-3 prostate)	TGI (HOP-92 NSCLC)	TGI (COLO 205 colon)	TGI (NCI/ADR-RES ovarian)	TGI (HS 578T breast)
Cc1nn(-c2ccccc2)c2nc3c(c(C)nn3-c3ccccc3)c(-c3ccccc3Br)c12	> 100 µM	> 100 µM	> 100 µM	> 100 µM	> 100 µM	> 100 µM	> 100 µM	> 100 µM	> 100 µM	> 100 µM	> 100 µM	–
CN(C)c1cccc(-c2cc(=O)c3cc4c(cc3[nH]2)OCO4)c1	–	> 73.9 µM	4.58 µM	> 90 µM	–	> 100 µM	–	–	> 100 µM	0.823 µM	–	–
COC(=O)CC1CN(C(=O)OCc2ccccc2)C(C)(C)O1 (centres undefined)	66.9 µM	–	> 100 µM	> 100 µM	> 100 µM	> 100 µM	> 100 µM	> 100 µM	> 100 µM	> 100 µM	> 100 µM	–
CC/C(=C/OC)P1(=O)OC(C)(C)CN1C(C)(C)C (centres undefined)	> 100 µM	> 100 µM	> 100 µM	> 100 µM	> 100 µM	> 100 µM	> 100 µM	> 100 µM	–	> 100 µM	> 100 µM	–
CCCN(CCC)C(=S)N/N=C/c1cccc(C)n1	–	–	0.473 µM	24.5 µM	2.03 µM	0.546 µM	> 100 µM	62.9 µM	> 100 µM	0.0435 µM	1.07 µM	> 100 µM
O=C(/C=C(\O)C(=O)O)/C=C(\O)c1ccccc1Cl	–	> 100 µM	> 100 µM	> 100 µM	–	> 100 µM	> 100 µM	–	> 100 µM	> 100 µM	–	–
CC(C)C1=CC(=O)C(C)(C2=NC(C)(C)CO2)c2ccccc21 (centres undefined)	–	> 100 µM	–	> 100 µM	–	> 100 µM	> 100 µM	–	> 100 µM	> 100 µM	–	–
CC1(C)C[C@H]2C3=CC[C@@H]4[C@@]5(C)CC[C@H](O)C(C)(C)[C@@H]5CC[C@@]4(C)[C@]3(C)C[C@@H](O)[C@@]23C[C@@H]1OC3=O	–	> 100 µM	> 100 µM	> 100 µM	> 100 µM	> 100 µM	> 100 µM	> 100 µM	> 100 µM	> 100 µM	> 100 µM	> 100 µM
O=C(/C=C\c1cccc2ccccc12)c1ccc(Br)cc1	–	> 100 µM	> 100 µM	34.7 µM	–	45.9 µM	> 100 µM	–	85.6 µM	91.6 µM	–	–
CC1=C(C(=O)OC23CC4CC(CC(C4)C2)C3)C(c2ccccc2OC(F)F)C(C(=O)OC23CC4CC(CC(C4)C2)C3)=C(C)N1 (centres undefined)	> 100 µM	> 100 µM	> 100 µM	> 100 µM	> 100 µM	> 100 µM	> 100 µM	–	> 100 µM	> 100 µM	> 100 µM	> 100 µM
CC(=O)CCC(=O)CC(O)(C(F)(F)F)C(F)(F)F	–	33.6 µM	17.6 µM	35.4 µM	35 µM	49.8 µM	43.2 µM	–	26.7 µM	34.4 µM	58.7 µM	38.5 µM
